Paper PMC6273627, “Extended N-Arylsulfonylindoles as 5-HT6 Receptor Antagonists: Design, Synthesis & Biological Evaluation” (Molecules, 2016)
“And” between values parts separate entries of the source, which are not always exact repeats. Identical values can stand only once. Like-named read-outs stand apart in the source and are kept apart here.

Columns and labels:
5-HT6R = settings: cited from earlier work
[1] = target: T1, cloned human 5-HT6-expressing cell line (HTS111RTA) (Homo sapiens, UniProt P50406); experiment: intracellular calcium mobilization assay (antagonism of 2-Me 5-HT); assay type: cell-based; settings: for IC50: antagonism of 2-Me-5-HT (500 nM) intracellular calcium mobilization
T1 construct: host or cells: purchased ready-to-assay cell line
T1 sequence (P50406 whole entry): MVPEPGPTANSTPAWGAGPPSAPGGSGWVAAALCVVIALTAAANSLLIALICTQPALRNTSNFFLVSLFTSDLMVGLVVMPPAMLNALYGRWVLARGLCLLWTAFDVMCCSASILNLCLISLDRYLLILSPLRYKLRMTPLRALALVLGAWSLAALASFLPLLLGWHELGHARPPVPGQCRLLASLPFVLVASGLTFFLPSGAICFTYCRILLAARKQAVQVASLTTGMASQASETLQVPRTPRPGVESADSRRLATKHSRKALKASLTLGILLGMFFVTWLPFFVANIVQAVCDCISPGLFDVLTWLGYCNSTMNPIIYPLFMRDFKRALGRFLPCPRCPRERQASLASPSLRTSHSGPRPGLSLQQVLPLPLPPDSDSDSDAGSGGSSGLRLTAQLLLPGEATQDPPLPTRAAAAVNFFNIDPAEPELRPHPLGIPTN

1H-NMR pKa determination = assay type: physicochemical; settings: D2O solution; 1H-NMR titration in D2O, 298 K, corrected for H2O; piperazine nitrogen; read-out: pKa (pKa2)
Procedure: All NMR spectra were performed on a Bruker Avance III HD-400 MHz spectrometer at 298 K. The ^1H-NMR experiments were acquired using water suppression in order to suppress the residual HDO signal. Solutions of the 3b and 4g 2 mM in D2O were prepared adding acetone 200 μM as an internal standard. The titrations were carried out progressively in a single NMR sample for each compound. The pH was adjusted with 0.1 mol/L of NaOH and 0.1 mol/L HCl, to cover the pH ranges 4.65–9.11 and 5.58–9.46 for 3b and 4g solutions, respectively. […] The chemical shifts (δ ppm) of the piperazine methylene protons were plotted against the pH for both compounds. The pKa were obtained from the inflection point of the resulting sigmoidal curve, for each compound.
The signal to upfield of the doublet of methylene protons of the piperazine ring was used to plot δ ppm vs. pH. In this case, the pKa^D correspond to inflection point in the resulting sigmoidal curve from the plot δ ppm vs. pH, for each compound (Figure 7B,D). […] The pKa value determined in D2O was corrected for H2O using the Krezel et al. equation [59].
The chemical shift is affected by the chemical and, consequently, the magnetic environment. Therefore, the protonation of basic species such as the nitrogen atoms in piperazine ring induce important changes in the chemical environment in the adjacent proton groups. […]

| Compound | melting point | further results |
| --- | --- | --- |
| Cc1[nH]c2ccc(O)cc2c1CCN [2-Me 5-HT, reference compound] |  | pKi (5-HT6R; Figure 1, known ligands): 7.34; EC50 [1]: 119 nM |
| COc1ccccc1N1CCNCC1 [2-methoxyphenyl piperazine] |  | 5-HT6R affinity compared with the compounds here reported (5-HT6R): substantially lower affinity |
| O=C(CBr)c1c[nH]c2ccccc12 [Compound 1] | 160.3 to 161 °C | pKi (5-HT6R; Table 2 reference value): 8.70 [1] |
| Cc1ccc(S(=O)(=O)n2cc(C(=O)CN3CCN(c4ccccn4)CC3)c3ccccc32)cc1 [Compound 3a, 2-(4-(Pyridyl-2-yl)piperazin-1-yl)-1-(1-tosyl-1H-indol-3-yl)ethanone] | 74.9 to 75.7 °C and 75 to 76 °C |  |
| COc1ccccc1N1CCN(CC(=O)c2cn(S(=O)(=O)c3ccc(C)cc3)c3ccccc23)CC1 [Compound 3b, 2-(4-(2-Methoxyphenyl)piperazin-1-yl)-1-(1-tosyl-1H-indol-3-yl)ethanone] | 132.3 to 133.6 °C and 132 to 134 °C | pKa (1H-NMR pKa determination): 5.72 |
| Cc1ccc(S(=O)(=O)n2cc(C(=O)CN3CCN(c4ncccn4)CC3)c3ccccc32)cc1 [Compound 3c, 2-(4-(Pyrimidin-2-yl)piperazin-1-yl)-1-(1-tosyl-1H-indol-3-yl)ethanone] | 133 to 134 °C |  |
| O=C(CN1CCN(c2ncccn2)CC1)c1cn(S(=O)(=O)c2ccc(Cl)cc2)c2ccccc12 [Compound 3d, 1-(1-(4-Chlorophenylsulfonyl)-1H-indol-3-yl)-2-(4-(pyrimidin-2-yl)piperazin-1-yl)ethanone] | 168 to 169 °C |  |
| O=C(CN1CCN(c2ncccn2)CC1)c1cn(S(=O)(=O)c2ccc(F)cc2)c2ccccc12 [Compound 3e, 1-(1-(4-Fluorophenylsulfonyl)-1H-indol-3-yl)-2-(4-(pyrimidin-2-yl)piperazin-1-yl)ethanone] | 145 to 146 °C |  |
| O=C(CN1CCN(c2ccccn2)CC1)c1cn(S(=O)(=O)c2ccc(I)cc2)c2ccccc12 [Compound 3f, 1-(1-(4-Iodophenylsulfonyl)-1H-indol-3-yl)-2-(4-(pyridin-2-yl)piperazin-1-yl)ethanone] | 179 to 180 °C |  |
| COc1ccccc1N1CCN(CC(=O)c2cn(S(=O)(=O)c3ccc(I)cc3)c3ccccc23)CC1 [Compound 3g, 1-(1-(4-Iodophenylsulfonyl)-1H-indol-3-yl)-2-(4-(2-methoxyphenyl)piperazin-1-yl)ethanone] | 182 to 183 °C |  |
| O=C(CN1CCN(c2ncccn2)CC1)c1cn(S(=O)(=O)c2ccc(I)cc2)c2ccccc12 [Compound 3h, 1-(1-(4-Iodophenylsulfonyl)-1H-indol-3-yl)-2-(4-(pyrimidin-2-yl)piperazin-1-yl)ethanone] | 184 to 185 °C |  |
| O=C(CN1CCN(c2ccccn2)CC1)c1cn(S(=O)(=O)c2cccc3ccccc23)c2ccccc12 [Compound 3i, 1-(1-(Naphthalen-1-ylsulfonyl)-1H-indol-3-yl)-2-(4-(pyridin-2-yl)piperazin-1-yl)ethanone] | 76 to 77 °C |  |
| COc1ccccc1N1CCN(CC(=O)c2cn(S(=O)(=O)c3cccc4ccccc34)c3ccccc23)CC1 [Compound 3j, 2-(4-(2-Methoxyphenyl)piperazin-1-yl)-1-(1-(naphthalen-1-ylsulfonyl)-1H-indol-3-yl)ethanone] | 74 to 75 °C |  |
| O=C(CN1CCN(c2ncccn2)CC1)c1cn(S(=O)(=O)c2cccc3ccccc23)c2ccccc12 [Compound 3k, 1-(1-(Naphthalen-1-ylsulfonyl)-1H-indol-3-yl)-2-(4-(pyrimidin-2-yl)piperazin-1-yl)ethanone] | 88 to 89 °C |  |
| Cc1ccc(S(=O)(=O)n2cc(C(O)CN3CCN(c4ccccn4)CC3)c3ccccc32)cc1 (stereo not drawn) [Compound 4a, 2-(4-(Pyridin-2-yl)piperazin-1-yl)-1-(1-tosyl-1H-indol-3-yl)ethanol] | 72.4 to 73.9 °C and 72 to 74 °C | IC50 [1]: 783 nM |
| COc1ccccc1N1CCN(CC(O)c2cn(S(=O)(=O)c3ccc(C)cc3)c3ccccc23)CC1 (stereo not drawn) [Compound 4b, 2-(4-(2-Methoxyphenyl)piperazin-1-yl)-1-(1-tosyl-1H-indol-3-yl)ethanol] | 86.3 to 86.9 °C and 86 to 87 °C |  |
| Cc1ccc(S(=O)(=O)n2cc(C(O)CN3CCN(c4ncccn4)CC3)c3ccccc32)cc1 (stereo not drawn) [Compound 4c, 2-(4-(Pyrimidin-2-yl)piperazin-1-yl)-1-(1-tosyl-1H-indol-3-yl)ethanol] | 81 to 82 °C |  |

| Compound | melting point | further results |
| --- | --- | --- |
| O=S(=O)(c1ccc(Cl)cc1)n1cc(C(O)CN2CCN(c3ncccn3)CC2)c2ccccc21 (stereo not drawn) [Compound 4d, 1-(1-(4-Chlorophenylsulfonyl)-1H-indol-3-yl)-2-(4-(pyrimidin-2-yl)piperazin-1-yl)ethanol] | 76 to 77 °C and 81 to 82 °C |  |
| O=S(=O)(c1ccc(F)cc1)n1cc(C(O)CN2CCN(c3ncccn3)CC2)c2ccccc21 (stereo not drawn) [Compound 4e, 1-(1-(4-Fluorophenylsulfonyl)-1H-indol-3-yl)-2-(4-(pyrimidin-2-yl)piperazin-1-yl)ethanol] | 72 to 73 °C |  |
| O=S(=O)(c1ccc(I)cc1)n1cc(C(O)CN2CCN(c3ccccn3)CC2)c2ccccc21 (stereo not drawn) [Compound 4f, 1-(1-(4-Iodophenylsulfonyl)-1H-indol-3-yl)-2-(4-(pyridin-2-yl)piperazin-1-yl)ethanol] | 157 to 158 °C | IC50 [1]: 24600 nM |
| COc1ccccc1N1CCN(CC(O)c2cn(S(=O)(=O)c3ccc(I)cc3)c3ccccc23)CC1 (stereo not drawn) [Compound 4g, 1-(1-(4-Iodophenylsulfonyl)-1H-indol-3-yl)-2-(4-(2-methoxyphenyl)piperazin-1-yl)ethanol] | 109 to 110 °C | pKa (1H-NMR pKa determination): 6.69; inhibition of 2-Me-5HT-induced Ca2+ mobilization [1]: strong inhibition; IC50 [1]: 204 nM |
| O=S(=O)(c1ccc(I)cc1)n1cc(C(O)CN2CCN(c3ncccn3)CC2)c2ccccc21 (stereo not drawn) [Compound 4h, 1-(1-(4-Iodophenylsulfonyl)-1H-indol-3-yl)-2-(4-(pyrimidin-2-yl)piperazin-1-yl)ethanol] | 171 to 172 °C | IC50 [1]: 75 nM |
| O=S(=O)(c1cccc2ccccc12)n1cc(C(O)CN2CCN(c3ccccn3)CC2)c2ccccc21 (stereo not drawn) [Compound 4i, 1-(1-(Naphthalen-1-ylsulfonyl)-1H-indol-3-yl)-2-(4-(pyridin-2-yl)piperazin-1-yl)ethanol] | 80 to 81 °C | IC50 [1]: 399 nM |
| COc1ccccc1N1CCN(CC(O)c2cn(S(=O)(=O)c3cccc4ccccc34)c3ccccc23)CC1 (stereo not drawn) [Compound 4j, 2-(4-(2-Methoxyphenyl)piperazin-1-yl)-1-(1-(naphthalen-1-ylsulfonyl)-1H-indol-3-yl)ethanol] |  | inhibition of 2-Me-5HT-induced Ca2+ mobilization [1]: strong inhibition; IC50 [1]: 32 nM |
| O=S(=O)(c1cccc2ccccc12)n1cc(C(O)CN2CCN(c3ncccn3)CC2)c2ccccc21 (stereo not drawn) [Compound 4k, 1-(1-(Naphthalen-1-ylsulfonyl)-1H-indol-3-yl)-2-(4-(pyrimidin-2-yl)piperazin-1-yl)ethanol] | 82 to 83 °C | IC50 [1]: 688 nM |
| COc1ccc(S(=O)(=O)n2cc(C(O)CN3CCOCC3)c3ccccc32)cc1 (stereo not drawn) [Compound 4l, 1-(1-(4-Methoxyphenylsulfonyl)-1H-indol-3-yl)-2-morpholinoethanol] | 149 to 152 °C |  |
| O=S(=O)(c1ccc(F)cc1)n1cc(C2=CCCNC2)c2ccccc21 [III] |  | pKi (5-HT6R; Figure 1, known ligands): 8.70 |
| CN1CCC(c2cn(S(=O)(=O)c3ccc(F)cc3)c3ccccc23)C1 (stereo not drawn) [II] |  | pKi (5-HT6R; Figure 1, known ligands): 8.70 |
| CC(C)c1ccc(S(=O)(=O)n2cc(N3CCN(C)CC3)c3ccccc32)cc1 [IV] |  | pKi (5-HT6R; Figure 1, known ligands): 8.47 |
| COc1ccc2c(c1)c(CCN(C)C)cn2S(=O)(=O)c1ccccc1 [I] |  | pKi (5-HT6R; Figure 1, known ligands): 8.64 |
| CCN(CC)C(=O)[C@@H]1C=C2c3cccc4[nH]cc(c34)C[C@H]2N(C)C1 [LSD] |  | pKi (5-HT6R; Figure 1, known ligands): 8.94 |
| CN1CC(Cl)=C(c2cn(S(=O)(=O)c3ccccc3)c3ccccc23)C1 [VI] |  | pKi (5-HT6R; Figure 1, known ligands): 8.57 |
| CN1CCC[C@@H]1Cc1cn(S(=O)(=O)c2ccccc2)c2ccccc12 [V] |  | pKi (5-HT6R; Figure 1, known ligands): 9.52 |
